pIC50: −log10 of the molar value.
Key:
human CYP11B1 = molecular target: T1, human CYP11B1 (Homo sapiens, UniProt P15538); test: Inhibition of hCYP11B1 in transfected V79 cells; format: cell-based; conditions: hamster V79 cells expressing human CYP11B1; substrate 11-deoxycortisol 200 nM
T1 construct: expressed in transfected cells
T1 sequence (P15538 25-503): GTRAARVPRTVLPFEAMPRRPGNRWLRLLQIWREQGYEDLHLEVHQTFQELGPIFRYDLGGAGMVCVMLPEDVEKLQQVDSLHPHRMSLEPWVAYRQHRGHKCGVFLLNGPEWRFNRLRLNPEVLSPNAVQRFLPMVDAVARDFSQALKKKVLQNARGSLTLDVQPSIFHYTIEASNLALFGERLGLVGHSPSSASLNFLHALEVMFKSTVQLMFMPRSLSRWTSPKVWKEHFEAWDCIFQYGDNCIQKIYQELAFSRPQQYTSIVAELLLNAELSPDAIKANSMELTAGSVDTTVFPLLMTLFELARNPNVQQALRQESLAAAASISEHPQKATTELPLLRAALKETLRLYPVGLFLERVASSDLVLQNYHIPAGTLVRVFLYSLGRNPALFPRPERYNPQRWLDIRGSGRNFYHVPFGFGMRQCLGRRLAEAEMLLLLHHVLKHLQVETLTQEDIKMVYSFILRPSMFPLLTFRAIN
Outline: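 V79 hamster cells stably expressing human CYP11B1 and rat NADPH-P450 reductase were preincubated with compounds for 2 h. 11-Deoxycortisol (200 nM) was then added as substrate for 30 min before ethyl acetate quench. Substrate and product were quantified by LC-MS/MS or HPLC at 260 nm, and IC50 was derived from percent inhibition.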

human CYP11B2 = molecular target: T2, human CYP11B2 (Homo sapiens, UniProt P19099); test: Inhibition of hCYP11B2 in transfected V79 cells; format: cell-based; conditions: hamster V79 cells expressing human CYP11B2; substrate 11-deoxycorticosterone 200 nM
T2 construct: expressed in transfected cells
T2 sequence (P19099 25-503): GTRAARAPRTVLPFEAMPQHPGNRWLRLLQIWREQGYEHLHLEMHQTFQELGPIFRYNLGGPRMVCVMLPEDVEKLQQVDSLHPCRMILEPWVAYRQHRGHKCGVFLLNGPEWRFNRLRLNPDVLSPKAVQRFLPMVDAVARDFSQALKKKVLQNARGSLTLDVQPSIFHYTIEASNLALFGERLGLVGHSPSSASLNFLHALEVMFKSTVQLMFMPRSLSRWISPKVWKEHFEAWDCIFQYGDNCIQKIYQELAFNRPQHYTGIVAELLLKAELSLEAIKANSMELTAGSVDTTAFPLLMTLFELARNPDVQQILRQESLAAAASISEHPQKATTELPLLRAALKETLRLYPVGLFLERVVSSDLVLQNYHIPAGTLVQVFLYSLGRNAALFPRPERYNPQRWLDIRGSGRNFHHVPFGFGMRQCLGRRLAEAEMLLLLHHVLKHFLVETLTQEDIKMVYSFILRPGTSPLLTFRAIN
Outline: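 Hamster V79 cells stably co-expressing human CYP11B2 and rat NADPH-P450 reductase were pre-incubated with compounds for 2 hours, then given 200 nM 11-deoxycorticosterone for 30 minutes before ethyl acetate quench. Substrate and product were quantified by LC-MS/MS or HPLC at 260 nm, and IC50 was derived from percent inhibition.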

| pIC50 (human CYP11B1) | pIC50 (human CYP11B2) | SMILES |
| --- | --- | --- |
| 6.53 | 7.55 | Cc1ccccc1C(=O)N1CCc2c(-c3ccc(C#N)cc3)cncc21 [C36, 4-(1-(2-Methylbenzoyl)-2,3-dihydro-1H-pyrrolo[2,3-c]pyridin-4-yl)benzonitrile] |
| 7.14 | 9.05 | COc1ccc(S(=O)(=O)N2CCSc3c(-c4cc5cc(Cl)ccc5o4)cncc32)cn1 [S53, 8-(5-Chlorobenzofuran-2-yl)-4-((6-methoxypyridin-3-yl)sulfonyl)-3,4-dihydro-2H-pyrido[4,3-b][1,4]thiazine] |
| 6.92 | 8.16 | N#Cc1ccc(-c2cncc3c2OCCN3C(=O)CCc2cccc(C(F)(F)F)c2)cc1 [O54] |
| 6.85 | 8.59 | N#Cc1ccc(-c2cncc3c2OCCN3C(=O)Cc2cccc(Cl)c2)cc1 [O39, 4-(4-(2-(3-Chlorophenyl)acetyl)-3,4-dihydro-2H-pyrido[4,3-b][1,4]oxazin-8-yl)benzonitrile] |
| 6.95 | 9.00 | COc1ccc(CN2CC(C(=O)N3CCOc4c(-c5ccc(C#N)cc5)cncc43)C2)cc1 [O83, 4-(4-(1-(4-Methoxybenzyl)azetidine-3-carbonyl)-3,4-dihydro-2H-pyrido[4,3-b][1,4]oxazin-8-yl)benzonitrile] |
| 9.92 | 9.33 | N#Cc1ccc(-c2cncc3c2OCCN3S(=O)(=O)c2cccc(Cl)c2)cc1 [O7, 4-(4-((3-Chlorophenyl)sulfonyl)-3,4-dihydro-2H-pyrido[4,3-b][1,4]oxazin-8-yl)benzonitrile] |
| 5.76 | 7.60 | N#Cc1ccc(-c2cncc3c2OCCN3C(=O)c2cccc(F)c2)cc1 [O20, 4-(4-(3-Fluorobenzoyl)-3,4-dihydro-2H-pyrido[4,3-b][1,4]oxazin-8-yl)benzonitrile] |
| 9.15 | 9.40 | N#Cc1ccc(-c2cncc3c2ccn3S(=O)(=O)c2cccc3ccccc23)cc1 [E15, 4-(1-(Naphthalen-1-ylsulfonyl)-1H-pyrrolo[2,3-c]pyridin-4-yl)benzonitrile] |
| 7.05 | 8.89 | N#Cc1ccc(-c2cncc3c2OCCN3C(=O)C2CN(S(=O)(=O)c3ccc(C#N)cc3)C2)cc1 [O75, 4-((3-(8-(4-Cyanophenyl)-3,4-dihydro-2H-pyrido[4,3-b][1,4]oxazine-4-carbonyl)azetidin-1-yl)sulfonyl)benzonitrile] |
| 5.89 | 7.74 | N#Cc1ccc(-c2cncc3c2OCCN3C(=O)CCl)cc1 [O33, 4-(4-(2-Chloroacetyl)-3,4-dihydro-2H-pyrido[4,3-b][1,4]oxazin-8-yl)benzonitrile] |
| 7.74 | 9.52 | COc1cccc(C(=O)N2CC(S(=O)(=O)N3CCSc4c(-c5ccc(C#N)cc5)cncc43)C2)c1 [S73, 4-(4-((1-(3-Methoxybenzoyl)azetidin-3-yl)sulfonyl)-3,4-dihydro-2H-pyrido[4,3-b][1,4]thiazin-8-yl)benzonitrile] |
| 9.52 | 9.40 | Cc1cccc(S(=O)(=O)n2ccc3c(-c4ccc(C#N)cc4)cncc32)c1 [E4, 4-(1-(m-Tolylsulfonyl)-1H-pyrrolo[2,3-c]pyridin-4-yl)benzonitrile] |
| 7.17 | 9.22 | Cc1ccc(CC(=O)N2CCOc3c(-c4ccc(C#N)cc4)cncc32)cc1 [O42, 4-(4-(2-(p-Tolyl)acetyl)-3,4-dihydro-2H-pyrido[4,3-b][1,4]oxazin-8-yl)benzonitrile] |
| 9.52 | 9.77 | N#Cc1ccc(-c2cncc3c2CCN3S(=O)(=O)c2ccc3ccccc3c2)cc1 [C12, 4-(1-(Naphthalen-2-ylsulfonyl)-2,3-dihydro-1H-pyrrolo[2,3-c]pyridin-4-yl)benzonitrile] |
| 9.15 | 8.68 | COc1ccc(S(=O)(=O)N2CCSc3c(-c4ccco4)cncc32)cc1 [S38, 8-(Furan-2-yl)-4-((4-methoxyphenyl)sulfonyl)-3,4-dihydro-2H-pyrido[4,3-b][1,4]thiazine] |
| 8.82 | 10.00 | N#Cc1ccc(-c2cncc3c2SCCN3S(=O)(=O)c2ccccc2)cc1 [S8, 4-(4-(Phenylsulfonyl)-3,4-dihydro-2H-pyrido[4,3-b][1,4]thiazin-8-yl)benzonitrile] |

| pIC50 (human CYP11B1) | pIC50 (human CYP11B2) | SMILES |
| --- | --- | --- |
| 7.42 | 9.22 | COc1cccc(CN2CC(S(=O)(=O)N3CCOc4c(-c5ccc(C#N)cc5)cncc43)C2)c1 [O124, 4-(4-((1-(3-Methoxybenzyl)azetidin-3-yl)sulfonyl)-3,4-dihydro-2H-pyrido[4,3-b][1,4]oxazin-8-yl)benzonitrile] |
| 9.52 | 9.40 | N#Cc1ccc(-c2cncc3c2ccn3S(=O)(=O)c2ccccc2)cc1 [E3, 4-(1-(Phenylsulfonyl)-1H-pyrrolo[2,3-c]pyridin-4-yl)benzonitrile] |
| 9.60 | 8.85 | Cc1cccc(S(=O)(=O)N2CCc3c(-c4ccc(C#N)cc4)cncc32)c1 [C8, 4-(1-(m-Tolylsulfonyl)-2,3-dihydro-1H-pyrrolo[2,3-c]pyridin-4-yl)benzonitrile] |
| 5.95 | 7.58 | N#Cc1ccc(-c2cncc3c2OCCN3C(=O)c2ccccc2F)cc1 [O21, 4-(4-(2-Fluorobenzoyl)-3,4-dihydro-2H-pyrido[4,3-b][1,4]oxazin-8-yl)benzonitrile] |
| 9.52 | 9.22 | N#Cc1ccc(-c2cncc3c2ccn3S(=O)(=O)c2cccc(C#N)c2)cc1 [E10, 3-((4-(4-Cyanophenyl)-1H-pyrrolo[2,3-c]pyridin-1-yl)sulfonyl)benzonitrile] |
| 8.54 | 8.60 | N#Cc1ccc(-c2cncc3c2ccn3C(=O)c2c(F)c(F)c(F)c(F)c2F)cc1 [E19, 4-(1-(Perfluorobenzoyl)-1H-pyrrolo[2,3-c]pyridin-4-yl)benzonitrile] |
| 5.87 | 8.28 | N#Cc1ccc2oc(-c3cncc4c3OCCN4C(=O)C3CN(Cc4cccc(F)c4)C3)cc2c1 [O96, 2-(4-(1-(3-Fluorobenzyl)azetidine-3-carbonyl)-3,4-dihydro-2H-pyrido[4,3-b][1,4]oxazin-8-yl)benzofuran-5-carbonitrile] |
| 6.60 | 8.17 | N#Cc1ccc(-c2cncc3c2SCCN3C(=O)c2ccc(C(F)(F)F)cc2)cc1 [S88, 4-(4-(4-(Trifluoromethyl)benzoyl)-3,4-dihydro-2H-pyrido[4,3-b][1,4]thiazin-8-yl)benzonitrile] |
| 6.28 | 8.60 | Cc1ccc(S(=O)(=O)N2CC(C(=O)N3CCOc4c(-c5ccc(C#N)cc5)cncc43)C2)cc1 [O65, 4-(4-(1-Tosylazetidine-3-carbonyl)-3,4-dihydro-2H-pyrido[4,3-b][1,4]oxazin-8-yl)benzonitrile] |
| 6.86 | 7.57 | N#Cc1ccc(-c2cncc3c2CCN3C(=O)c2ccco2)cc1 [C44, 4-(1-(Furan-2-carbonyl)-2,3-dihydro-1H-pyrrolo[2,3-c]pyridin-4-yl)benzonitrile] |
| 7.57 | 8.70 | CC(=O)N1CCc2cc(S(=O)(=O)N3CCSc4c(-c5cc6cc(Cl)ccc6o5)cncc43)ccc21 [S58, 1-(5-((8-(5-Chlorobenzofuran-2-yl)-2,3-dihydro-4H-pyrido[4,3-b][1,4]thiazin-4-yl)sulfonyl)indolin-1-yl)ethan-1-one] |
| 7.68 | 9.22 | N#Cc1ccc(-c2cncc3c2ccn3C(=O)c2cccc([N+](=O)[O-])c2)cc1 [E22, 4-(1-(3-Nitrobenzoyl)-1H-pyrrolo[2,3-c]pyridin-4-yl)benzonitrile] |
| 6.29 | 8.14 | O=S(=O)(C1CNC1)N1CCSc2c(-c3cc4cc(Cl)ccc4o3)cncc21 [S62, 4-(Azetidin-3-ylsulfonyl)-8-(5-chlorobenzofuran-2-yl)-3,4-dihydro-2H-pyrido[4,3-b][1,4]thiazine] |
| 6.42 | 7.96 | O=C(c1ccccc1F)N1CCc2c(-c3cccc([N+](=O)[O-])c3)cncc21 [C53, (2-Fluorophenyl)(4-(3-nitrophenyl)-2,3-dihydro-1H-pyrrolo[2,3-c]pyridin-1-yl)methanone] |
| 7.77 | 8.68 | N#Cc1ccc(-c2cncc3c2ccn3C(=O)c2ccccc2F)cc1 [E28, 4-(1-(2-Fluorobenzoyl)-1H-pyrrolo[2,3-c]pyridin-4-yl)benzonitrile] |

From US20260092074A1, “Annelated Pyridines as Steroidogenesis Inhibitors, Preparation Method and Use Thereof” (Guangzhou Vinnocent Pharmaceutical Limited, priority 2022, published 2026)
